Literature values as cited in patent US11819508B2 (priority 2020, dated 2023).
Read-outs that look alike come from different tables or passages of the source.

Columns and labels:
[1] = in vivo
Covid-19 = conditions: subcutaneous; subjects hospitalized with Covid-19

Molecule | half-life [1] | solubility (in aqueous solutions) | solubility (in water or saline solutions) | solubility (in water, 0.1 N HCl or NaOH, methanol, and ethanol) | clinical improvement as assessed by NEWS 2 and SOFA score and shortened hospital stay (Covid-19)
2-[[(hexadecyloxy)hydroxyphosphenyl]oxy]-N,N,N-trimethylethylammonium inner salt [Miltefosine] | long half-life | freely soluble | readily soluble | freely soluble | 
IFN β-1b: cytokine in the interferon family, subcutaneous (protein, UniProt P01574 22-187, looked up, variant C17S, lacks N-terminal Met1, non-glycosylated, cytokine in the interferon family, subcutaneous) Interferon beta: MSYNLLGFLQRSSNFQSQKLLWQLNGRLEYCLKDRMNFDIPEEIKQLQQFQKEDAALTIYEMLQNIFAIFRQDSSSTGWNETIVENLLANVYHQINHLKTVLEEKLEKEDFTRGKLMSSLHLKRYYGRILHYLKAKEYSHCAWTIVRVEILRNFYFINRLTGYLRN |  |  |  |  | clinical improvement
